In series [1] the target is HDAC4 (Homo sapiens, UniProt P56524). Nature of the series: in vitro HDAC inhibition assay (fluorescence), HDAC4. The series is classed as biochemical. The conditions noted are these: HDAC4. Here is the method: (§1) Briefly, all of the compounds are dissolved in DMSO. A series of dilutions of the compounds were prepared with 10% DMSO in HDAC assay buffer and 5 μl of the dilution was added to a 50 μl reaction so that the final concentration of DMSO is 1% in all of reactions. The compounds were pre-incubated in duplicate at RT for 1 hour in a mixture containing HDAC assay buffer, 5 μg BSA, HDAC enzyme (see Table 7) and a the particular HDACi. After 1 hour, the enzymatic reactions were initiated by the addition of HDAC substrate (BPS Bioscience) to a final concentration of 10 μM or 2 μM. The enzymatic reaction proceeded for 30 minutes at 37° C.
Chain of HDAC4 (P56524 whole entry): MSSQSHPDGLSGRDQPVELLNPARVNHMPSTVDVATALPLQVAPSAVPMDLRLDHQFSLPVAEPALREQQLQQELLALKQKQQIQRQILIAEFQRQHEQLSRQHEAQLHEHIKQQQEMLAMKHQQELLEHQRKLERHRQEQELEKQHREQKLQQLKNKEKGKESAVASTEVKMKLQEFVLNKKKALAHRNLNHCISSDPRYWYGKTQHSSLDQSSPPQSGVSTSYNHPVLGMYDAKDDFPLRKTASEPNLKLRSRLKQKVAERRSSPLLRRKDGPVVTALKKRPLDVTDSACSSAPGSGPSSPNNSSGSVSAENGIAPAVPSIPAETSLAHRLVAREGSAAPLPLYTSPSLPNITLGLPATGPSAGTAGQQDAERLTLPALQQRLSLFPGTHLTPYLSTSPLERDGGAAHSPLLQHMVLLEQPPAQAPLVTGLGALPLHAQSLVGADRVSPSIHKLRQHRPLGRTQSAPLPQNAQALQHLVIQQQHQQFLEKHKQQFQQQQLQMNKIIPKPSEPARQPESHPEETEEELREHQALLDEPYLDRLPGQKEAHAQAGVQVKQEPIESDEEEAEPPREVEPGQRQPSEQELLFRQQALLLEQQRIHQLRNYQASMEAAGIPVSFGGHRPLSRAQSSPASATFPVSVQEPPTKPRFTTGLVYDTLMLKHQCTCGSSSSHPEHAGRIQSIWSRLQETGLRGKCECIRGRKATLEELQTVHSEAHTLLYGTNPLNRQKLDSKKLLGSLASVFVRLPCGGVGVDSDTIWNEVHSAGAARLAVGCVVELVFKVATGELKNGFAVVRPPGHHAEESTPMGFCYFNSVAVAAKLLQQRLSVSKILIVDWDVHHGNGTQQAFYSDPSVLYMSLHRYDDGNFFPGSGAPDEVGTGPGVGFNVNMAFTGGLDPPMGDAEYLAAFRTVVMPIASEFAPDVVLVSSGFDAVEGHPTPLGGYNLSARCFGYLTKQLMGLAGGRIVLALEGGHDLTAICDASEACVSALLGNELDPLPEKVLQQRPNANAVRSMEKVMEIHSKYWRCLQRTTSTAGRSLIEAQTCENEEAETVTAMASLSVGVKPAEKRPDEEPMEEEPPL
(§2) HDAC activity assays were performed in duplicates at each concentration. The fluorescent intensity data were analyzed using the computer software, Graphpad Prism. In the absence of the compound, the fluorescent intensity (Ft) in each data set was defined as 100% activity. In the absence of HDAC, the fluorescent intensity (Fb) in each data set was defined as 0% activity. The percent activity in the presence of each compound was calculated according to the following equation: % activity=(F−Fb)/(Ft−Fb), where F=the fluorescent intensity in the presence of the compound. […]

The target of series [2] is HDAC5 (Homo sapiens, UniProt Q9UQL6). Nature of the series: in vitro HDAC inhibition assay (fluorescence), HDAC5. It is filed as biochemical. The method, then: as §1, §2
Chain of HDAC5 (Q9UQL6 whole entry): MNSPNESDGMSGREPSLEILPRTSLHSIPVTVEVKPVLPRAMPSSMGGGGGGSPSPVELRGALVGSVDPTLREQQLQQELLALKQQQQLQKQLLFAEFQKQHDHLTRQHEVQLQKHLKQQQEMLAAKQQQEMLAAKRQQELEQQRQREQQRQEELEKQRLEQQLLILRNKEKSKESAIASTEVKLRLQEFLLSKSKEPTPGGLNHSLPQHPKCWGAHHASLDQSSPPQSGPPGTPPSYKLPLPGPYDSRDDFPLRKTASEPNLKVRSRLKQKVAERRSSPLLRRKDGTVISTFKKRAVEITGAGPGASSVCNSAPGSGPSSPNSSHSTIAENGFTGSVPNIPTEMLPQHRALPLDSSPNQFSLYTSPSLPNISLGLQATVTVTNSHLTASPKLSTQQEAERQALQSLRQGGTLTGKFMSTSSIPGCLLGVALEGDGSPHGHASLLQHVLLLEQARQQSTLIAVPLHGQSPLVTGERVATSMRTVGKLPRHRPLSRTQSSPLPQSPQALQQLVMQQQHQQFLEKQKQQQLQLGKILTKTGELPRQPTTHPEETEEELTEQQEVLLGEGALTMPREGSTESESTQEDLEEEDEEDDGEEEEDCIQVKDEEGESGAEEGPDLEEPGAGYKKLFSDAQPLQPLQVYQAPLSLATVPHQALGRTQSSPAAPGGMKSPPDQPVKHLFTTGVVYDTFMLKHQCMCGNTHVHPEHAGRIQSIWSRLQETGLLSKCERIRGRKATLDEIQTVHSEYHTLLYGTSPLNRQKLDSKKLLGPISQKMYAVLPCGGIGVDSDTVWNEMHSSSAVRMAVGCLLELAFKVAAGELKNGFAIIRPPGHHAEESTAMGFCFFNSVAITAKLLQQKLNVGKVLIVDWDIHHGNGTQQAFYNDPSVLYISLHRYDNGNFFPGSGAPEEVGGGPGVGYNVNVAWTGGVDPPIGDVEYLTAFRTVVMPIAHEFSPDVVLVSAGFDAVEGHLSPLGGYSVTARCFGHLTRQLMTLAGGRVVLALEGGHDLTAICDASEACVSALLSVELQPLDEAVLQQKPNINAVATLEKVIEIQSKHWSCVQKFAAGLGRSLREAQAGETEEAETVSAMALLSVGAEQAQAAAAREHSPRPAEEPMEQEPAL
For series [3], the target named is T1, HDAC7 (Homo sapiens, UniProt Q8WUI4).
T1 sequence (Q8WUI4 1-952): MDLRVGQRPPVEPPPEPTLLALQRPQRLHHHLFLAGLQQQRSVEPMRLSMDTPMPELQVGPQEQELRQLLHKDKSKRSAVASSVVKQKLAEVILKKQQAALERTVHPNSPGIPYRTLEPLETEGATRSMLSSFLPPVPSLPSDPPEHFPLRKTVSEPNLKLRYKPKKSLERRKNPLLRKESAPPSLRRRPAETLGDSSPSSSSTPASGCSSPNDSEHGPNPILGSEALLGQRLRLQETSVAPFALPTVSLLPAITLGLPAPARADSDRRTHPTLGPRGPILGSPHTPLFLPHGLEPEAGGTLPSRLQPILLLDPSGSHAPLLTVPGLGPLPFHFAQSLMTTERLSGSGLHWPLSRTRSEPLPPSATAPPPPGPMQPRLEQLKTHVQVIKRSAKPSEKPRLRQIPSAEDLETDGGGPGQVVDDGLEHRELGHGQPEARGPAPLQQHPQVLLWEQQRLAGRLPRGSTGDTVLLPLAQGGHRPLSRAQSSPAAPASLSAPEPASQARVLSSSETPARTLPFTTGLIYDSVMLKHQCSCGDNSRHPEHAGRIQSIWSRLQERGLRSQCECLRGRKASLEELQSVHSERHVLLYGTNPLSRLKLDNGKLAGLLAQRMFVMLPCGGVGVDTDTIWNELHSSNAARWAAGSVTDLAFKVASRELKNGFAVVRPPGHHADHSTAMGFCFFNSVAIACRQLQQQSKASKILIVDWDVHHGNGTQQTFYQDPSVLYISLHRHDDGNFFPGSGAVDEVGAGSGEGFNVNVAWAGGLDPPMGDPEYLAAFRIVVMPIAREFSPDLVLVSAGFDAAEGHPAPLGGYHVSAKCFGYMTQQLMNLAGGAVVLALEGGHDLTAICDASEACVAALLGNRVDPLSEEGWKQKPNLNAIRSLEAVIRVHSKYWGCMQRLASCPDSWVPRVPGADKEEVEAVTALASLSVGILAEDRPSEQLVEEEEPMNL
As to the kind of experiment: in vitro HDAC inhibition assay (fluorescence), HDAC7. The series is classed as biochemical. The conditions noted are these: HDAC7. Here is the method:
as §1, §2

Series [4] addresses HDAC9 (Homo sapiens, UniProt Q9UKV0). As to the kind of experiment: in vitro HDAC inhibition assay (fluorescence), HDAC9. It is filed as biochemical. The conditions noted are these: HDAC9. The method, then: as §1, §2
Series [5] can be described thus: Single dose pharmacokinetics of VRx-3996 in patients, serum, cycle 1 day 1. The series is classed as in vivo, humans. The conditions noted are these: human, po. The method, then:
Patients enrolled in study were administered oral nanatinostat and valganciclovir at predefined doses. […] 8.1 software.

Series [6] deals with Histone 3 acetylation in peripheral blood mononuclear cells. Nature of the series: H3 acetylation in peripheral blood mononuclear cells of healthy donors, flow cytometry. It is filed as cell-based, humans. The conditions noted are these: PBMC of healthy donors. The source says:
Percentage of cells with H3 acetylation, as determined by flow cytometry, is shown.
Since H3 acetylation is a pharmacodynamic biomarker of Nstat activity, acetylation of H3 was examined in treated cells.
On the technique in general: A flow cytometer gives signals particle by particle.

Read-outs that look alike come from different tables or passages of the source.

As a reminder, the IC50 is the point on the concentration scale where inhibition reaches its midpoint. A lower IC50 goes with inhibition by little substance. For orientation: AUC means concentration integrated over time. By Cmax is commonly meant the highest concentration seen after dosing. By Tmax is commonly meant the time from dosing to the highest level.

Chain of HDAC9 (Q9UKV0 whole entry): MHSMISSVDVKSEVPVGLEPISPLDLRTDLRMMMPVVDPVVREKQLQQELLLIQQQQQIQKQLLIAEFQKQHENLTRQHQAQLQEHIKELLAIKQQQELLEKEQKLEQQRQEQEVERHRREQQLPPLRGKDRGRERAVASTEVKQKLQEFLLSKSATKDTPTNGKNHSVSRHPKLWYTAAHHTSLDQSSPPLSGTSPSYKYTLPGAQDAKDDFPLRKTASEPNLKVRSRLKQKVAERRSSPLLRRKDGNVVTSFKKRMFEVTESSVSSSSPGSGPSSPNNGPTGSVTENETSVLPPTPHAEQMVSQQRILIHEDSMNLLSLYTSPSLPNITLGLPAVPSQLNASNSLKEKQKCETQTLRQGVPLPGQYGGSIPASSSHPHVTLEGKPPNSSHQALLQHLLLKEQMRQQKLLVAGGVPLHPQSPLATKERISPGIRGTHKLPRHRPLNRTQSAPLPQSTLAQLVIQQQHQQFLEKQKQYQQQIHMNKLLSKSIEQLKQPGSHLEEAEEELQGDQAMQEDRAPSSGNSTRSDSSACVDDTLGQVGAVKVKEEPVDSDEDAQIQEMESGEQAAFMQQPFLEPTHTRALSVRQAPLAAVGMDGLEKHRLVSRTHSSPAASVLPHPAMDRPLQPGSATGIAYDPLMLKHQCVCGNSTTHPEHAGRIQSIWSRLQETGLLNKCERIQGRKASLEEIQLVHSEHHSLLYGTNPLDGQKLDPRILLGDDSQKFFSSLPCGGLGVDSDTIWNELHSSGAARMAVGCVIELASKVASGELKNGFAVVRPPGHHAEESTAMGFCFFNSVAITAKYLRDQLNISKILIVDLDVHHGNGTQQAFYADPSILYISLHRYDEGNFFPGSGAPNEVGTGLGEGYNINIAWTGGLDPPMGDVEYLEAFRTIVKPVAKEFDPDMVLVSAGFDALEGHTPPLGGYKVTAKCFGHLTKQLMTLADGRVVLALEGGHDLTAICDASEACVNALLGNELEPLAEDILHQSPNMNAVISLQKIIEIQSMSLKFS

Consider `O=C(NO)c1cnc(N2CC3C(C2)C3NCc2ccc3cc(F)ccc3n2)nc1` (stereo not shown) [Nstat, 2-(6-{[(6-Fluoroquinolin-2-yl)methyl]amino}-3-azabicyclo[3.1.0]hex-3-yl)-N-hydroxypyrimidine-5-carboxamide], for which the IC50 was found to be 1 µM in series [1], 0.39 µM in series [2], 1.6 µM in series [3] and 0.44 µM in series [4]. For the same compound, the AUC was 117 ng·h/mL in series [5] (Treatment A = 5 mg VRx-3996 p.o. and 450 mg Valganciclovir p.o., single dose, N=1, read-out: AUC, geometric mean); 317 ng·h/mL in series [5] (Treatment B = 10 mg VRx-3996 p.o. and 450 mg Valganciclovir p.o., single dose, N=1, read-out: AUC, geometric mean); 322 ng·h/mL in series [5] (Treatment C = 10 mg VRx-3996 p.o. and 900 mg Valganciclovir p.o., single dose, N=4, read-out: AUC, geometric mean). Moreover, the half-life was 2.18 h in series [5] (Treatment A = 5 mg VRx-3996 p.o. and 450 mg Valganciclovir p.o., single dose, N=1, read-out: Half-Life, geometric mean (converted)); 1.17 h in series [5] (Treatment B = 10 mg VRx-3996 p.o. and 450 mg Valganciclovir p.o., single dose, N=1, read-out: Half-Life, geometric mean (converted)); 1.67 h in series [5] (Treatment C = 10 mg VRx-3996 p.o. and 900 mg Valganciclovir p.o., single dose, N=4, read-out: Half-Life, geometric mean (converted)); roughly 2 h in series [5] (humans, oral nanatinostat with valganciclovir, read-out: T1/2 (converted)). Further, the AUC(0-t) in series [5] (Treatment A = 5 mg VRx-3996 p.o. and 450 mg Valganciclovir p.o., single dose, N=4, read-out: AUClast, geometric mean) amounted to 40.5 ng·h/mL; in series [5] (Treatment B = 10 mg VRx-3996 p.o. and 450 mg Valganciclovir p.o., single dose, N=9, read-out: AUClast, geometric mean), 165 ng·h/mL; in series [5] (Treatment C = 10 mg VRx-3996 p.o. and 900 mg Valganciclovir p.o., single dose, N=6, read-out: AUClast, geometric mean), 227 ng·h/mL. In addition, the Cmax turned out to be 18.5 ng/mL in series [5] (Treatment A = 5 mg VRx-3996 p.o. and 450 mg Valganciclovir p.o., single dose, N=4, read-out: Cmax, geometric mean); 62.6 ng/mL in series [5] (Treatment B = 10 mg VRx-3996 p.o. and 450 mg Valganciclovir p.o., single dose, N=9, read-out: Cmax, geometric mean); 78.9 ng/mL in series [5] (Treatment C = 10 mg VRx-3996 p.o. and 900 mg Valganciclovir p.o., single dose, N=6, read-out: Cmax, geometric mean). Besides, the time of peak concentration (Tmax) came to 3 h in series [5] (Treatment A = 5 mg VRx-3996 p.o. and 450 mg Valganciclovir p.o., single dose, N=4, read-out: Tmax, median (range)); 2 h in series [5] (Treatment B = 10 mg VRx-3996 p.o. and 450 mg Valganciclovir p.o., single dose, N=9, read-out: Tmax, median (range)); 1 h in series [5] (Treatment C = 10 mg VRx-3996 p.o. and 900 mg Valganciclovir p.o., single dose, N=6, read-out: Tmax, median (range)). Further, the “potency in inducing elevated levels of Histone 3 acetylation” value in series [6] (even at a dose of 100 nM, FIG. 2) is on record as “much more potent than entinostat”. The “duration of effect on H3 acetylation (time-course)” value in series [6] (even at doses down to 10 nM, FIG. 3) is “long-lasting”.

The values above are taken from patent publication US20240058347A1, “DOSAGES FOR HDAC TREATMENT WITH REDUCED SIDE EFFECTS” (VIRACTA THERAPEUTICS, INC., priority 2019, published 2024).
